# Source: PubChem BioAssay AID248 (DTP/NCI, 2004)
# Values joined by “and” are separate entries in the source; they are usually repeats but may differ in a detail not shown here. Equal entries are not always repeated. Toxic doses and inconclusive results are not listed.
# Tested on: L1210 leukemia ip in BDF1 mice, survival T/C
# Test: NCI In Vivo Anticancer Drug Screen. Data for tumor model L1210 Leukemia (intraperitoneal) in B6D2F1 (BDF1) mice
# Conditions: higher = longer survival
# Outline: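 Tumor cells were implanted, animals were treated, and survival was followed. The result divides the treated measurement by the vehicle-control measurement.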
# [1] = endpoint: mean survival time, dose: 50.0 mg/kg/injection, schedule: Q01DX001 (ip), vehicle: saline
# [2] = endpoint: mean survival time, dose: 100.0 mg/kg/injection, schedule: Q01DX001 (ip), vehicle: saline
# [3] = endpoint: mean survival time, dose: 200.0 mg/kg/injection, schedule: Q01DX001 (ip), vehicle: saline
# [4] = endpoint: mean survival time, dose: 400.0 mg/kg/injection, schedule: Q01DX001 (ip), vehicle: saline
# [5] = endpoint: mean survival time, dose: 100.0 mg/kg/injection, schedule: Q01DX009 (ip), vehicle: Klucel (hydroxypropylcellulose) (HPC)
# [6] = endpoint: mean survival time, dose: 100.0 mg/kg/injection, schedule: Q01DX009 (ip), vehicle: saline with Tween-80
# [7] = endpoint: mean survival time, dose: 100.0 mg/kg/injection, schedule: Q04DX003 (ip), vehicle: saline with Tween-80
# [8] = endpoint: mean survival time, dose: 200.0 mg/kg/injection, schedule: Q01DX009 (ip), vehicle: saline with Tween-80
# [9] = endpoint: mean survival time, dose: 400.0 mg/kg/injection, schedule: Q01DX009 (ip), vehicle: saline with Tween-80
# [10] = endpoint: mean survival time, dose: 400.0 mg/kg/injection, schedule: Q04DX003 (ip), vehicle: saline with Tween-80
# [11] = endpoint: mean survival time, dose: 100.0 mg/kg/injection, schedule: Q01DX001 (ip), vehicle: carboxymethylcellulose (CMC)
# [12] = endpoint: mean survival time, dose: 200.0 mg/kg/injection, schedule: Q01DX001 (ip), vehicle: carboxymethylcellulose (CMC)
# [13] = endpoint: mean survival time, dose: 400.0 mg/kg/injection, schedule: Q01DX001 (ip), vehicle: carboxymethylcellulose (CMC)
# [14] = endpoint: mean survival time, dose: 200.0 mg/kg/injection, schedule: Q01DX009 (ip), vehicle: Klucel (hydroxypropylcellulose) (HPC)
smiles,measurement,setting,value
CC[C@H]1CN2CCc3cc(OC)c(OC)cc3[C@@H]2C[C@@H]1C[C@H]1NCCc2c1[nH]c1ccc(O)cc21,T/C,"endpoint: mean survival time, dose: 0.25 mg/kg/injection, schedule: Q01DX006 (ip), vehicle: saline",109 % of control
same,T/C,"endpoint: mean survival time, dose: 0.5 mg/kg/injection, schedule: Q01DX006 (ip), vehicle: saline",117 % of control
same,T/C,"endpoint: mean survival time, dose: 2.0 mg/kg/injection, schedule: Q01DX005 (ip), vehicle: saline",121 % of control
same,T/C,"endpoint: mean survival time, dose: 4.0 mg/kg/injection, schedule: Q01DX005 (ip), vehicle: saline",108 % of control
same,T/C,"endpoint: mean survival time, dose: 4.0 mg/kg/injection, schedule: Q04DX003 (ip), vehicle: saline",114 % of control
same,T/C,"endpoint: mean survival time, dose: 125.0 micrograms/kg/injection, schedule: Q01DX009 (ip), vehicle: saline",108 % of control
same,T/C,"endpoint: mean survival time, dose: 250.0 micrograms/kg/injection, schedule: Q01DX009 (ip), vehicle: saline",118 % of control
same,T/C,"endpoint: mean survival time, dose: 500.0 micrograms/kg/injection, schedule: Q01DX009 (ip), vehicle: saline",120 % of control
same,T/C,"endpoint: mean survival time, dose: 1000.0 micrograms/kg/injection, schedule: Q01DX009 (ip), vehicle: saline",109 % of control
same,T/C,"endpoint: median survival time, dose: 1.0 mg/kg/injection, schedule: Q04DX003 (ip), vehicle: saline + alcohol",108 % of control
same,T/C,"endpoint: median survival time, dose: 2.0 mg/kg/injection, schedule: Q04DX003 (ip), vehicle: saline + alcohol",118 % of control
Cc1ccc(S(=O)(=O)N(c2cc(C)ccc2C)c2ccccc2N)cc1,T/C,[1],93 % of control
same,T/C,[2],95 % of control
same,T/C,[3],98 % of control
same,T/C,[4],93 % of control
O=c1[nH]cnc2c1nnn2C1OC(CO)C(O)C1O (stereo unspecified),T/C,"endpoint: mean survival time, dose: 90.0 mg/kg/injection, schedule: Q01DX009 (ip), vehicle: saline",155 % of control and 160 % of control
same,T/C,"endpoint: mean survival time, dose: 135.0 mg/kg/injection, schedule: Q01DX009 (ip), vehicle: saline",163 % of control
C[NH-].C[NH-].C[NH-].C[NH-].[Cl][Rh][Cl],T/C,[5],97 % of control
same,T/C,"endpoint: mean survival time, dose: 100.0 mg/kg/injection, schedule: Q04DX003 (ip), vehicle: Klucel (hydroxypropylcellulose) (HPC)",86 % of control
same,T/C,"endpoint: mean survival time, dose: 200.0 mg/kg/injection, schedule: Q04DX003 (ip), vehicle: Klucel (hydroxypropylcellulose) (HPC)",94 % of control
same,T/C,"endpoint: mean survival time, dose: 400.0 mg/kg/injection, schedule: Q04DX003 (ip), vehicle: Klucel (hydroxypropylcellulose) (HPC)",92 % of control
COC(=O)CCC(=O)CCC(C)C,T/C,[6],110 % of control
same,T/C,[7],103 % of control
same,T/C,[8],92 % of control
same,T/C,[9],101 % of control
same,T/C,[10],93 % of control
O=[N+]([O-])c1ccnc(NC2CCCCC2)c1,T/C,[2],97 % of control
same,T/C,[3],96 % of control
same,T/C,[4],96 % of control
CCc1ccc(N=Nc2c(F)c(F)c(N)c(F)c2F)cc1,T/C,[11],100 % of control
same,T/C,[12],95 % of control
same,T/C,[13],102 % of control
CSc1nnc2sc(=S)[nH]n12,T/C,[11],105 % of control
same,T/C,[12],90 % of control
same,T/C,[13],94 % of control
ClCc1ccccc1CCl,T/C,"endpoint: mean survival time, dose: 5.0 mg/kg/injection, schedule: Q01DX015 (ip), vehicle: carboxymethylcellulose (CMC)",90 % of control
same,T/C,"endpoint: mean survival time, dose: 10.0 mg/kg/injection, schedule: Q01DX015 (ip), vehicle: carboxymethylcellulose (CMC)",87 % of control
Cc1ccccc1-c1nc2ncnc(N)c2[nH]1,T/C,"endpoint: mean survival time, dose: 31.8 mg/kg/injection, schedule: Q01DX001 (ip), vehicle: Klucel (hydroxypropylcellulose) (HPC)",104 % of control
same,T/C,"endpoint: mean survival time, dose: 62.5 mg/kg/injection, schedule: Q01DX001 (ip), vehicle: Klucel (hydroxypropylcellulose) (HPC)",109 % of control
same,T/C,"endpoint: mean survival time, dose: 125.0 mg/kg/injection, schedule: Q01DX001 (ip), vehicle: Klucel (hydroxypropylcellulose) (HPC)",101 % of control
CCCn1nnc2ccccc2c1=Nc1ccccc1Cl,T/C,"endpoint: mean survival time, dose: 50.0 mg/kg/injection, schedule: Q01DX009 (ip), vehicle: saline",97 % of control
same,T/C,"endpoint: mean survival time, dose: 100.0 mg/kg/injection, schedule: Q01DX009 (ip), vehicle: saline",88 % of control
same,T/C,"endpoint: mean survival time, dose: 100.0 mg/kg/injection, schedule: Q04DX003 (ip), vehicle: saline",110 % of control
same,T/C,"endpoint: mean survival time, dose: 200.0 mg/kg/injection, schedule: Q01DX009 (ip), vehicle: saline",97 % of control
same,T/C,"endpoint: mean survival time, dose: 200.0 mg/kg/injection, schedule: Q04DX003 (ip), vehicle: saline",106 % of control
same,T/C,"endpoint: mean survival time, dose: 400.0 mg/kg/injection, schedule: Q04DX003 (ip), vehicle: saline",100 % of control
C#CC(C)(O)c1ccccc1 (stereo unspecified),T/C,[5],98 % of control
same,T/C,[14],98 % of control
COC(=O)c1ccc(N(C)Cc2cnc3nc(N)nc(SCc4ccccc4)c3n2)cc1,T/C,"endpoint: mean survival time, dose: 100.0 mg/kg/injection, schedule: Q01DX001 (ip), vehicle: saline with Tween-80",97 % of control
same,T/C,"endpoint: mean survival time, dose: 200.0 mg/kg/injection, schedule: Q01DX001 (ip), vehicle: saline with Tween-80",94 % of control
same,T/C,"endpoint: mean survival time, dose: 400.0 mg/kg/injection, schedule: Q01DX001 (ip), vehicle: saline with Tween-80",101 % of control
Nc1ccn(C2SC(CO)C(O)C2O)c(=O)n1 (stereo unspecified),T/C,[1],100 % of control
same,T/C,[2],105 % of control
same,T/C,[3],100 % of control
same,T/C,[4],92 % of control
Cc1ccc(NC(=O)C(=O)Nc2ccc(C)cc2)cc1,T/C,[5],90 % of control
same,T/C,"endpoint: mean survival time, dose: 100.0 mg/kg/injection, schedule: Q04DX003 (ip), vehicle: other",93 % of control
same,T/C,[14],89 % of control
same,T/C,"endpoint: mean survival time, dose: 200.0 mg/kg/injection, schedule: Q04DX003 (ip), vehicle: other",92 % of control
same,T/C,"endpoint: mean survival time, dose: 400.0 mg/kg/injection, schedule: Q01DX009 (ip), vehicle: Klucel (hydroxypropylcellulose) (HPC)",90 % of control
same,T/C,"endpoint: mean survival time, dose: 400.0 mg/kg/injection, schedule: Q04DX003 (ip), vehicle: other",89 % of control
O=c1[nH]c2ccccc2c(=O)n1C1CCCCC1,T/C,"endpoint: mean survival time, dose: 25.0 mg/kg/injection, schedule: Q01DX009 (ip), vehicle: water",96 % of control
same,T/C,"endpoint: mean survival time, dose: 50.0 mg/kg/injection, schedule: Q01DX009 (ip), vehicle: water",94 % of control
same,T/C,"endpoint: mean survival time, dose: 100.0 mg/kg/injection, schedule: Q01DX009 (ip), vehicle: water",103 % of control
same,T/C,"endpoint: mean survival time, dose: 200.0 mg/kg/injection, schedule: Q01DX009 (ip), vehicle: water",98 % of control
same,T/C,"endpoint: mean survival time, dose: 400.0 mg/kg/injection, schedule: Q01DX009 (ip), vehicle: water",101 % of control
CCCCC[n+]1cccc(C#N)c1,T/C,"endpoint: mean survival time, dose: 37.5 mg/kg/injection, schedule: Q04DX003 (ip), vehicle: saline",100 % of control
same,T/C,"endpoint: mean survival time, dose: 75.0 mg/kg/injection, schedule: Q01DX001 (ip), vehicle: saline",96 % of control
same,T/C,"endpoint: mean survival time, dose: 75.0 mg/kg/injection, schedule: Q04DX003 (ip), vehicle: saline",91 % of control
same,T/C,"endpoint: mean survival time, dose: 150.0 mg/kg/injection, schedule: Q01DX001 (ip), vehicle: saline",100 % of control
same,T/C,"endpoint: mean survival time, dose: 150.0 mg/kg/injection, schedule: Q04DX003 (ip), vehicle: saline",100 % of control
O=c1[nH]c(=O)c2ccccc2c2ccccc12,T/C,[6],99 % of control
same,T/C,[7],102 % of control
same,T/C,[8],86 % of control
same,T/C,"endpoint: mean survival time, dose: 200.0 mg/kg/injection, schedule: Q04DX003 (ip), vehicle: saline with Tween-80",107 % of control
same,T/C,[9],93 % of control
same,T/C,[10],102 % of control
Cc1ccc(OCCC(=O)O)cc1,T/C,"endpoint: mean survival time, dose: 100.0 mg/kg/injection, schedule: Q04DX002 (ip), vehicle: saline",108 % of control
same,T/C,"endpoint: mean survival time, dose: 200.0 mg/kg/injection, schedule: Q04DX002 (ip), vehicle: saline",101 % of control
same,T/C,"endpoint: mean survival time, dose: 400.0 mg/kg/injection, schedule: Q04DX002 (ip), vehicle: saline",108 % of control
Cc1ccc(/C(=N\N=C(N)N)C2CC2)c(C)c1,T/C,"endpoint: mean survival time, dose: 15.0 mg/kg/injection, schedule: Q01DX Z (ip), vehicle: methylcellulose (MC)",89 % of control
same,T/C,"endpoint: mean survival time, dose: 30.0 mg/kg/injection, schedule: Q01DX Z (ip), vehicle: methylcellulose (MC)",98 % of control
same,T/C,"endpoint: mean survival time, dose: 30.0 mg/kg/injection, schedule: Q01DX Z (oral), vehicle: methylcellulose (MC)",103 % of control
same,T/C,"endpoint: mean survival time, dose: 60.0 mg/kg/injection, schedule: Q01DX Z (ip), vehicle: methylcellulose (MC)",95 % of control
same,T/C,"endpoint: mean survival time, dose: 60.0 mg/kg/injection, schedule: Q01DX Z (oral), vehicle: methylcellulose (MC)",97 % of control
same,T/C,"endpoint: mean survival time, dose: 240.0 mg/kg/injection, schedule: Q01DX Z (oral), vehicle: methylcellulose (MC)",86 % of control
